Laboratory results from patent EP0258134A1, “Therapeutical compositions containing benzhydryl thiomethane derivatives” (LABORATOIRE L. LAFON, priority 1986, dated 1988).

Tests used:
souris [1] = assay: Global behaviour and reactivities, mouse, i.p.; assay type: in vivo
Protocol: (§1) Le composé CRL 41 334, en suspension dans une solution de gomme arabique, a été administré par voie intrapéritonéale sous un volume de 20 ml/kg chez la souris (mâle, NMRI, C.E.R. Janvier) et de 5 ml/kg chez le rat (mâle, CD₁; SPRAGUE DAWLEY, Charles River).
(§2) Des lots de 3 animaux sont observés avant, puis 15 mn, 30 mn, 1h, 2h, 3h et 24 heures après l'administration du composé CRL 41 334.
(§3) Le CRL 41 055, en suspension dans une solution de gomme arabique, a été administré par voie intrapéritonéale sous un volume de 20 ml/kg chez la souris (mâle, NMRI, Evic Ceba).
(§4) Le CRL 40 956, en suspension dans une solution de gomme arabique a été administré par voie intrapéritonéale sous un volume de 20 ml/kg chez la souris (mâle, NMRI, Evic Céba) et de 5 ml/kg chez le rat (mâle, CD₁, Sprague Dawley, Charles River).
(§5) Des lots de 3 animaux sont observés avant, puis 15 mn, 30 mn, 1 h, 2 h, 3 h et 24 heures après l'administration de CRL 40 956.

souris [2] = assay: Intergroup aggressiveness; assay type: in vivo; conditions: 128 mg/kg
Protocol: Après avoir séjourné pendant 3 semaines dans chacune des moitiés d'une cage séparées par une cloison opaque, des groupes de 3 souris reçoivent le composé CRL 41 334. Une demi-heure plus tard, les deux groupes d'une même cage sont réunis par retrait de la cloison et on note le nombre de combats qui surviennent en 10 minutes. Le test est pratiqué pour moitié sur les souris habituelles (NMRI, C.E.R. Janvier) et pour moitié sur des souris NMRI (Iffa Credo).
Après avoir séjourné pendant 3 semaines dans chacune des moitiés d'une cage séparée par une cloison opaque, des groupes de 3 souris reçoivent le CRL 40 956. Une demi-heure plus tard, les deux groupes d'une même cage sont réunis par retrait de la cloison et on note le nombre de combats qui surviennent en 10 minutes.

souris [3] = assay: Asphyxic anoxia (gallamine triethiodide); assay type: in vivo; conditions: 512 mg/kg, gallamine 32 mg/kg i.p.
Protocol: Des lots de 20 souris reçoivent le composé CRL 41 334 une demi-heure avant l'administration intrapéritonéale de 32 mg/kg de triiodoéthylate de gallamine.
Des lots de 10 souris reçoivent le CRL 40 956 une demi-heure avant l'administration intrapé-ritonéale de 32 mg/kg de triodoéthylate de Gallamine.

souris [4] = assay: Pretoxicity, i.p., 3 mice per dose; assay type: in vivo
Protocol: as §1
I - PRETOXICITE ( 3 souris par dose)
as §3
Prétoxicite (3 souris par dose)
as §4
Prétoxicité ( 3 souris par dose)

rat [5] = assay: Global behaviour and reactivities, rat, i.p.; assay type: in vivo; conditions: rat
Protocol: as §1, §2, §4, §5

rat [6] = assay: Interaction with apomorphine, rat; assay type: in vivo; conditions: 64 et 256 mg/kg, apomorphine 0,5 mg/kg s.c.
Protocol: Le composé CRL 41 334 est administré à des lots de 6 rats une demi-heure avant l'injection sous-cutanée de 0,5 mg/kg d'apomorphine.
Le CRL 40 956 est administré à des lots de 6 rats une demi-heure avant l'injection sous cutanée de 0,5 mg/kg d'apomorphine.

Solubility in water = assay type: physicochemical; conditions: result in words
Text: Le composé est une poudre blanche, insoluble dans l'éther de pétrole, soluble dans l'éther, l'acé-tate d'éthyle et les alcools. Sa solubilité dans l'eau est inférieure à 0,1%.

souris [7] = assay: Behavioural despair (forced immersion); assay type: in vivo; conditions: souris, 512 mg/kg
Text: Une demi-heure après avoir reçu le composé CRL 41 334, des lots de 6 souris (mâles, CD₁, Charles River) sont placés dans un bécher rempli d'eau sur une hauteur de 6 cm. On note la durée totale d'immobilité entre la 2ème et la 6ème minutes suivant l'immersion.
Une demi-heure après avoir reçu le CRL 40 956, des lots de 10 souris (mâles CD₁ Charles River) sont plongées dans une enceinte réduite remplie d'eau sur une hauteur de 6 cm. On note la durée totale d'immobilité entre la 2ème et la 6ème minute suivant l'immersion.

souris [8] = assay: Interaction with barbital; assay type: in vivo; conditions: souris, 512 mg/kg, barbital 200 mg/kg i.p.
Protocol: Une demi-heure après l'administration du composé CRL 41 334, des lots de 20 souris reçoivent une injection intrapéritonéale de barbital ([…]).
Une demi-heure après l'administration du CRL 40 956 des lots de 10 souris reçoivent une injection intrapéritonéale de 200 mg/kg de barbital.

souris [9] = assay: Spontaneous motility (actimeter); assay type: in vivo; conditions: souris, half an hour before the actimeter
Protocol: Après avoir reçu le composé CRL 41 334, les souris sont placées en actimètre où leur motilité est enregistrée pendant 30 minutes.
Une demi-heure après avoir reçu le CRL 41 055, les souris (6 par dose, 12 témoins) sont placées en actimètre où leur motilité est enregistrée pendant 30 minutes.
Une demi-heure après avoir reçu le CRL 40 956, les souris (6 par dose, 12 témoins) sont placées en actimètre ou leur motilité est enregistrée pendant 30 minutes.

souris [10] = assay: Motility reduced by habituation to the enclosure; assay type: in vivo; conditions: 32 et 128 mg/kg
Protocol: Après 18 heures de séjour dans les actimè-tres, les souris (6 par dose, 12 témoins) reçoivent le composé CRL 41 334. Elles sont aussitôt replacées dans leurs enceintes respectives et, une demi-heure plus tard, on enregistre leur motilité pendant 30 minutes.
Après 18 heures de séjour dans les actimètres, les souris (6 par dose, 12 émoins) reçoivent le CRL 41 055. Elles sontaussitôt replacées dans leurs enceintes respectives et, une demi-heure plus tard, on enregistre leur motilité pendant 30 minutes.

homme = assay: Therapeutic use in humans; assay type: in vivo; conditions: trois gélules de 50 mg par jour
[11] = tested on: souris femelles de souche OF₁; assay: Delayed hypersensitivity reaction to sheep red blood cells; assay type: in vivo; conditions: for Ind. Activité / % d'augmentation du coussinet (mm) m: voie orale; for % d'augmentation du coussinet (mm) m: trois jours avant immunisation
Text: Selon la méthode de Miller, Lagrange et Mackaness ("Immunopotentiation with BCG II modulation of the response to sheep red blood cells", Journal of the National Cancer Institute 1973, 51, 5, 1669 - 1676).
Le composé à tester est administré par voie orale a des souris femelles de souche OF₁ trois jours avant immunisation.
Les résultats sont exprimés en pourcentage d'augmentation du coussinet plantaire.

rat [12] = assay: Search for stereotyped movements, rat; assay type: in vivo; conditions: in vivo, 2 mg/kg
Text: Des lots de 6 rats reçoivent une injection du composé CRL 41 334 ou d'amphétamine, puis sont immédiatement placés dans des boîtes de petites dimensions (20 x 10 x 10 cm) où leur comportement stéréotypeé est coté de 0 à 3 jusqu'à extinction de l'effet.

**Q.** What does the source list for ON=CCSC(c1ccccc1)c1ccccc1 [CRL 40 956, 2-(benzhydrylthio)acétaldoxime]?
**A.** comportement et réactivités (souris [1]; souris, 512 mg/kg i.p.): sédation pendant 2 à 3 heures; comportement et réactivités (souris [1]; souris, 128, 32 et 8 mg/kg i.p.): pas de symptômes nets; nombre de combats (souris [2]): diminue le nombre de combats; apparition des convulsions et de la mort (souris [3]): retarde modérément l'apparition des convulsions et de la mort; symptômes (souris [4]; 256 mg/kg i.p.): mêmes symptômes; mortalité (souris [4]; 1024 et 512 mg/kg i.p.): pas de mortalité; symptômes (souris [4]; 1024 et 512 mg/kg i.p.): crampes abdominales, dyspnée; comportement et réactivités (rat [5]; 64 mg/kg i.p.): sédation pendant 3 heures avec diminution; comportement et réactivités (rat [5]; 256 mg/kg i.p.): sédation pendant 3 heures; stéréotypies induites par l'apomorphine (rat [6]): diminue très modérément l'intensité des stéréotypies; solubilité dans l'eau (Solubility in water): Insoluble dans l'eau; durée d'immobilité "de désespoir" (souris [7]): diminue la durée d'immobilité; durée du sommeil barbiturique (souris [8]): diminue la durée du sommeil barbiturique; activité motrice spontanée (souris [9]; 512 mg/kg): diminue fortement l'activité motrice spontanée

**Q.** What does the source list for NC(=O)CSC(c1ccccc1)c1ccccc1 [CRL 41 055, 2-(benzhydrylthio)acétamide]?
**A.** comportement et réactivités (souris [1]; souris, 2 mg/kg i.p.): pas de modifications nettes; comportement et réactivités (souris [1]; souris, 128 mg/kg i.p.): sédation pendant 30 minutes faisant place à une excitation tardive; comportement et réactivités (souris [1]; souris, 8 et 32 mg/kg i.p.): excitation pendant 2 heures; activité motrice chez la souris habituée à son enceinte (souris [10]): reprise nette de l'activité motrice; symptômes (souris [4]; 64 mg/kg i.p., after 45 minutes, lasting more than 2 hours): excitation, stéréotypies (reniflements, redressements); symptômes (souris [4]; 512 mg/kg i.p.): sédation, fréquence respiratoire diminuée, contractions abdominales; convulsions (souris [4]; 512 mg/kg i.p., 18 heures après l'injection): convulsions intermittentes présentes chez toutes les souris; mortalité (souris [4]; 512 mg/kg i.p., après 48 heures): 1/3; symptômes (souris [4]; 1024 mg/kg i.p.): mêmes symptômes; mortalité (souris [4]; 128 et 256 mg/kg i.p.): Pas de mortalité; symptômes (souris [4]; 128 et 256 mg/kg i.p.): pendant 45 minutes sédation, fréquence respiratoire diminuée; solubilité dans l'eau (Solubility in water): insoluble dans l'eau; thérapeutique humaine comme antidépresseur (homme): s'est avéré utile; motilité spontanée (souris [9]; 32 et 128 mg/kg): augmentation de motilité spontanée

**Q.** What does the source list for O=C(CSC(c1ccc(F)cc1)c1ccc(F)cc1)NO [CRL 41 335, acide 2-(4,4ʹ-difluorobenzhydrylthio)acétohydroxamique]?
**A.** Ind. Activité ([11]; Exp 1, 0,1 mg/kg): 1,29; % d'augmentation du coussinet (mm) m ([11]; Exp 1, 0,1 mg/kg): 11,5%; Ind. Activité ([11]; Exp 1, 1 mg/kg): 0,94; % d'augmentation du coussinet (mm) m ([11]; Exp 1, 1 mg/kg): 8,4%; Ind. Activité ([11]; Exp 1, 10 mg/kg): 1,00; % d'augmentation du coussinet (mm) m ([11]; Exp 1, 10 mg/kg): 8,9%; Ind. Activité ([11]; Exp 1, 100 mg/kg): 0,77; % d'augmentation du coussinet (mm) m ([11]; Exp 1, 100 mg/kg): 6,9%; action immunostimulante ([11]; overall statement in the text): dépourvu d'une telle action immostimulante; solubilité dans l'eau (Solubility in water): insoluble dans l'eau

**Q.** With CC(N)Cc1ccccc1 (stereo not drawn) [amphétamine, reference compound] as the compound, how does the “durée des stéréotypies” value (rat [12]) read?
**A.** 270 min
